From patent US8268848B2, “Cyclopropane compound” (Eisai R&D Management Co., Ltd., priority 2010, dated 2012)
Where two headings read alike, the source gives them in different places.

Columns and labels:
patients with insomnia = details: cited from earlier work
rats = details: cited from earlier work
normal humans = details: cited from earlier work
OX1 [1] = target: T1, OX1 (Homo sapiens, UniProt O43613); experiment: Measurement of antagonism (PLAP assay), OX1; assay type: cell-based; design: expressed in transfected cells; host or cells: HEK-293 cells, expression vector pBabeCLIH
T1 sequence (O43613 1-425): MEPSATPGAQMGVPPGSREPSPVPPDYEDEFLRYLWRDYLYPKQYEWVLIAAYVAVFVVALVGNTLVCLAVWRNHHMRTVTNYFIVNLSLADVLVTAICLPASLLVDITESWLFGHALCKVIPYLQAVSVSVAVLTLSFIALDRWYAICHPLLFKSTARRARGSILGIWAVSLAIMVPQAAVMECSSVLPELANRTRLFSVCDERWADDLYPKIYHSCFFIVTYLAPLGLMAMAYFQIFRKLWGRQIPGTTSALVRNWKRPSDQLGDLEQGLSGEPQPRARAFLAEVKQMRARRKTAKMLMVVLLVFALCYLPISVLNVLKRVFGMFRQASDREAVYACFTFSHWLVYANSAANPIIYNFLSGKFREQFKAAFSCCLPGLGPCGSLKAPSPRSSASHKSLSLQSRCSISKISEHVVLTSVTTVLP
Description: (§1) 2. Measurement of Antagonism (PLAP Assay)
(§2) The antagonistic function of the compound of the present invention to prevent the activation of OX2 and OX1 by orexin-A (OX-A), which is a natural peptide agonist, was measured using a cell-based reporter assay. […] The cells were plated at a density of 10,000 cells/well onto a non-coated 96-well plate in Dulbecco's modified Eagle medium (Sigma Cat No. D6046:10% v/v heat-inactivated fetal bovine serum was contained). The cells were cultured at 37° C. overnight, so that they could adhere to the plate. On the following day, cells were incubated with a compound of the present invention dissolved in Dulbecco's modified Eagle medium (Sigma Cat No. A8806:0.1% w/v bovine serum albumin was contained), and added to the cell plate to reach a final concentration of 0.1% dimethyl sulfoxide.
(§3) The thus obtained mixture was incubated at room temperature for 1 hour. Thereafter, human OX-A and forskolin were dissolved in the same medium as described above, which contained fetal bovine serum albumin, and the medium was then added to the cells, resulting in a final concentration of 300 nM forskolin. Subsequently, the cells were cultured at 37° C. for approximately 18 to 24 hours.

OX2 [2] = target: T2, OX2 (Homo sapiens, UniProt O43614); experiment: Measurement of orexin receptor-binding ability ([125I]-OX-A, cell membranes, OX2); design: expressed in transfected cells; host or cells: CHO cells (membrane preparation); details: OX2 (IC50) nM, membranes of recombinant CHO cells expressing OX2, 0.2 nM [125I]-OX-A
T2 sequence (O43614 1-444): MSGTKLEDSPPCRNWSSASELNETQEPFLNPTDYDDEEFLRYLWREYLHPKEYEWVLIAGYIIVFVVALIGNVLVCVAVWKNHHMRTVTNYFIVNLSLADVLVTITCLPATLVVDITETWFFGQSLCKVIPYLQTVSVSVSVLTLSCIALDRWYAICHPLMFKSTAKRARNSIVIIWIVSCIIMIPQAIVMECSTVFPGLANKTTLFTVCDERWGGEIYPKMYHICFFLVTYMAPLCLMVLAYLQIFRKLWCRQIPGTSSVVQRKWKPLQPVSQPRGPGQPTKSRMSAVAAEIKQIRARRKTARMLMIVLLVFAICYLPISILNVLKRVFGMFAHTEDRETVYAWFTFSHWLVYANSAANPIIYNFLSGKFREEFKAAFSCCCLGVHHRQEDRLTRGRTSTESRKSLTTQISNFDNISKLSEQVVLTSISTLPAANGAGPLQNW

mice (C57BL/6NCrlCrLj) = experiment: Sleep experiment (EEG/EMG) in mice; assay type: in vivo; details: mice; for Sleep extended time 10 mg/kg (min/3 hrs): oral administration, difference to vehicle day; for minimum effective dose (MED): oral, doses 0.3 to 100 mg/kg, accumulated sleep time within three hours after administration
Description: As a method for measuring the influence of the present compound on sleep time, electroencephalogram (EEG) and electromyogram (EMG) measurements were carried out in mice (C57BL/6NCrlCrLj).
In order to measure brain waves and muscle signals, EEG and EMG electrode implantation was performed on individual mice, and the mice were then housed in a state in which they could freely move and habituate in individual recording cages for 1 week or longer. Thereafter, amplified EEG and EMG signals were digitally recorded.
Mice received either oral administration of vehicle or test compound in vehicle, after which sleep/wake behavior of mice was recorded for 3 hours.
For sleep analysis, automatic analysis software from Kissei Comtec Co., Ltd. was used to analyze EEG frequency and EMG activity signals in detail and to determine sleep and wake states. Thereafter, accumulated sleeping time over 3 hours was calculated.
The effect of the compound to increase sleep time was evaluated as the difference between sleeping time on the vehicle-administration day and the sleep time on the subsequent drug-administration day.
The minimum effective dose (MED; mg/kg) was obtained from accumulated sleep time of mice with three hours after the administration.

OX2 [3] = target: T2, OX2; experiment: Measurement of antagonism (PLAP assay), OX2; assay type: cell-based; design: expressed in transfected cells; host or cells: HEK-293 cells, expression vector pBabeCLIH
Description: as §1, §2, §3

OX1 [4] = target: T1, OX1; experiment: Measurement of orexin receptor-binding ability ([125I]-OX-A, cell membranes, OX1); design: expressed in transfected cells; host or cells: CHO cells (membrane preparation)
[5] = HEK-293 cells expressing human OX1, 1 nM human OX-A, IC50 converted by Cheng-Prusoff equation, read-out: OX1 (Ki)
[6] = HEK-293 cells expressing human OX2, 1 nM human OX-A, IC50 converted by Cheng-Prusoff equation, read-out: OX2 (Ki)

Row | SMILES | sleep efficacy, sleep latency, REM sleep (patients with insomnia) | REM sleep time and non-REM sleep time (rats) | wakefulness (rats) | sleep latency, sleep efficacy, total sleep time (normal humans) | Ki (OX1 [1]; [5]) [nM] | IC50 (OX2 [2]) [nM] | Sleep extended time 10 mg/kg (min/3 hrs) (mice (C57BL/6NCrlCrLj)) | Ki (OX2 [3]; [6]) [nM] | IC50 (OX1 [4]) [nM] | Ki (OX1 [1]) [nM] | minimum effective dose (MED) (mice (C57BL/6NCrlCrLj)) [mg/kg] | Ki (OX2 [3]) [nM] | IC50 (OX1 [4]; membranes of recombinant CHO cells expressing OX1, 0.2 nM [125I]-OX-A, read-out: OX1 (IC50)) [nM]
1 | CNC(=O)[C@@H](c1ccccc1)N1CCc2cc(OC)c(OC)cc2[C@@H]1CCc1ccc(C(F)(F)F)cc1 [almorexant, (2R)-2-{(1S)-6,7-dimethoxy-1-[2-(4-trifluoromethyl-phenyl)ethyl]-3,4-dihydro-1H-isoquinolin-2-yl}-N-methyl-2-phenylacetamide] | exhibits improvement of sleep efficacy, shortness of sleep latency, increase of REM sleep and improvement of REM sleep ratio | dose-dependently increases both rapid eye movement (REM) sleep time and non-REM sleep time | causes a decrease in wakefulness in rats | exhibits dose-dependently a reduction of sleep latency, sleep efficacy and extension of total sleep time | – | – | – | – | – | – | – | – | –
2 | CCc1nc(C)ncc1OC[C@@]1(c2ccccc2)C[C@H]1C(=O)Nc1ccc(F)cn1 [Example 119, (1R,2S)-2-{[(4-ethyl-2-methylpyrimidin-5-yl)oxy]methyl}-N-(5-fluoropyridin-2-yl)-2-phenylcyclopropanecarboxamide] | – | – | – | – | 21 | 5.2 | 16.0 | 0.6 | 21 | – | – | – | –
3 | Cc1ncc(OC[C@@]2(c3ccccc3)C[C@H]2C(=O)Nc2cc(C)c(F)cn2)c(C)n1 [Example 51, (1R,2S)-2-{[(2,4-dimethylpyrimidin-5-yl)oxy]methyl}-N-(5-fluoro-4-methylpyridin-2-yl)-2-phenylcyclopropanecarboxamide] | – | – | – | – | – | 3.9 | 23.6 | – | 6.4 | 29 | 3 | 1.2 | –
4 | COc1cccc([C@]2(COc3cnc(C)nc3C)C[C@H]2C(=O)Nc2ccc(F)cn2)c1 [Example 186, (1R,2S)-2-{[(2,4-dimethylpyrimidin-5-yl)oxy]methyl}-N-(5-fluoropyridin-2-yl)-2-(3-methoxyphenyl)cyclopropanecarboxamide] | – | – | – | – | 87 | 7 | 14.7 | 3.4 | 22 | – | – | – | –
5 | CCc1nc(C)ncc1OC[C@@]1(c2cccc(F)c2)C[C@H]1C(=O)Nc1ccccn1 [Example 240, (1R,2S)-2-{[(4-ethyl-2-methylpyrimidin-5-yl)oxy]methyl}-2-(3-fluorophenyl)-N-(pyridin-2-yl)cyclopropanecarboxamide] | – | – | – | – | – | 2.9 | 7.7 | – | 8.7 | 18 | 10 | 0.91 | –
6 | Cc1ncc(OC[C@@]2(c3ccccc3)C[C@H]2C(=O)Nc2ccc(F)cn2)c(C)n1 [Example 1, (1R,2S)-2-{[(2,4-dimethylpyrimidin-5-yl)oxy]methyl}-N-(5-fluoropyridin-2-yl)-2-phenylcyclopropanecarboxamide] | – | – | – | – | 157 | 6.8 | 18.3 | – | – | – | 30 | 10 | 139
